Columns and labels:
[1] = system: warts, toe and foot fungus, skin tags; test: Topical use of hydrated lime; conditions: in vivo
[2] = system: different bacterial strains including Bacillus subtilis; conditions: agar diffusion; hydrated spores; cited from earlier work
H5N1 virus = conditions: cited from earlier work

## [Ca+2].[OH-].[OH-] [calcium hydroxide]
[1]
  removal of warts, toe and foot fungus, skin tags: shown to remove warts, toe and foot fungus, skin tags
[2]
  antimicrobial activity compared with the other antimicrobial agents (MTA, Portland cement, Sealapex, Dycal): superior

## CC(N)C12CC3CC(CC(C3)C1)C2 (stereo not shown) [rimantadine]
H5N1 virus
  susceptibility of H5N1 virus currently infecting birds in Asia: resistant

## NC12CC3CC(CC(C3)C1)C2 [amantadine]
H5N1 virus
  susceptibility of H5N1 virus currently infecting birds in Asia: resistant
